Test results: patent US5776944A, “7-(4-aminomethyl-3-methyloxyiminopyrroplidin-1-yl)-1-cyclopropyl-6-flu oro-4-oxo-1,4-dihydro-1,8-naphthyridine-3-carboxylic acid and the process for the preparation thereof” (LG Chemical Ltd., priority 1994, dated 1998)
In brackets after ≈: the same amount, converted by molar mass. Like-named read-outs stand apart in the source and are kept apart here.

Tests used:
[1] = test system: Staphylococcus aureus 6538p; assay: In vitro antibacterial activity (MIC, agar medium dilution), Biological Example 4; type: cell-based; details: 18 h, Table 31, read-out: Minimum Inhibitory Concentration: MIC
[2] = test system: Staphylococcus aureus giorgio; assay: as above; type: cell-based; details: 18 h, Table 31, read-out: Minimum Inhibitory Concentration: MIC
Staphylococcus aureus 77 = assay: as above; type: cell-based; details: 18 h; Staphylococcus aureus 77, Table 31; read-out: Minimum Inhibitory Concentration: MIC
[3] = test system: Staphylococcus aureus 241; assay: as above; type: cell-based; details: Staphylococcus aureus, 241, 18 h, Staphylococcus aureus 241, Table 31; read-out: Minimum Inhibitory Concentration: MIC
[4] = test system: Staphylococcus epidermidis 887E; assay: as above; type: cell-based; details: 18 h, Staphylococcus epidermidis 887E, Table 31, read-out: Minimum Inhibitory Concentration: MIC
[5] = test system: Staphylococcus epidermidis 178; assay: as above; type: cell-based; details: 18 h; Staphylococcus epidermidis 178, Table 31; read-out: Minimum Inhibitory Concentration: MIC
[6] = test system: Streptococcus faecalis 29212; assay: as above; type: cell-based; details: Enterococcus faecalis, 29212, 18 h, Streptococcus faecalis 29212, Table 31; read-out: Minimum Inhibitory Concentration: MIC
Bacillus subtilis 6633 = assay: as above; type: cell-based; details: 18 h; Bacillus subtilis 6633, Table 31; read-out: Minimum Inhibitory Concentration: MIC
Micrococcus luteus 9341 = assay: as above; type: cell-based; details: 18 h; Micrococcus luteus 9341, Table 31; read-out: Minimum Inhibitory Concentration: MIC
Escherichia coli 10536 = assay: as above; type: cell-based; details: Escherichia coli, 10536, 18 h, Escherichia coli 10536, Table 31; read-out: Minimum Inhibitory Concentration: MIC
Escherichia coli 3190Y = assay: as above; type: cell-based; details: 18 h, Table 31, read-out: Minimum Inhibitory Concentration: MIC
Escherichia coli 851E = assay: as above; type: cell-based; details: 18 h, Table 31, read-out: Minimum Inhibitory Concentration: MIC
[7] = test system: Escherichia coli TEM3 3455E; assay: as above; type: cell-based; details: TEM33455E, 18 h, read-out: Minimum Inhibitory Concentration: MIC, Escherichia coli TEM3 3455E, Table 31
[8] = test system: Escherichia coli TEM5 3739E; assay: as above; type: cell-based; details: TEM53739E, 18 h, read-out: Minimum Inhibitory Concentration: MIC
[9] = test system: Escherichia coli TEM9 2639E; assay: as above; type: cell-based; details: TEM92639E, 18 h, read-out: Minimum Inhibitory Concentration: MIC
[10] = test system: Pseudomonas aeruginosa 1912E; assay: as above; type: cell-based; details: 18 h, Table 31, read-out: Minimum Inhibitory Concentration: MIC
[11] = test system: Pseudomonas aeruginosa 10145; assay: as above; type: cell-based; details: Pseudomonas aeruginosa, 10145, 18 h, Pseudomonas aeruginosa 10145, Table 31; read-out: Minimum Inhibitory Concentration: MIC
[12] = test system: Pseudomonas aeruginosa 6065Y; assay: as above; type: cell-based; details: 18 h, Table 31, read-out: Minimum Inhibitory Concentration: MIC
Experimental: (§1) In order to determine the antibacterial activitiers of the E- and Z-isomner of the compound 180 which were separated in Example 203, and of 7- (4-aminomethyl-3-methyloxylminopyrrolidin-1-yl)-1-cyclopropyl-6-fluoro-4-oxo-1,4-dihydro-1,8-naphthyridine-3-carboxylic acid methanesulfonate prepared in Example 204, in vitro antibacterial activities of them were measured using agar medium dilution method. The results were as described in the following Tables 31 and 32.

Seratis marsecence 1826E = assay: as above; type: cell-based; details: 18 h, Table 31, read-out: Minimum Inhibitory Concentration: MIC
Experimental: as §1

[13] = test system: Acinetobacter calcoaceticus 15473; assay: as above; type: cell-based; details: 18 h; Acinetobacter calcoaceticus 15473, Table 31; read-out: Minimum Inhibitory Concentration: MIC
[14] = test system: Citrobacter diversus 2046E; assay: as above; type: cell-based; details: Citrobacter koseri, 18 h, Table 31, read-out: Minimum Inhibitory Concentration: MIC
[15] = test system: Enterobacter cloacae 1194E; assay: microbe, parasite or virus in culture; type: cell-based; details: 18 h, read-out: Minimum Inhibitory Concentration: MIC
Enterobacter cloacae P99 = assay: microbe, parasite or virus in culture; type: cell-based; details: P99, 18 h, read-out: Minimum Inhibitory Concentration: MIC
[16] = test system: Klebsiella aerogenes 1976E; assay: In vitro antibacterial activity (MIC, agar medium dilution), Biological Example 4; type: cell-based; details: 18 h, Table 31, read-out: Minimum Inhibitory Concentration: MIC
[17] = test system: Klebsiella aerogenes 1082E; assay: as above; type: cell-based; details: 18 h, Table 31, read-out: Minimum Inhibitory Concentration: MIC
Proteus vulgaris 6059 = assay: as above; type: cell-based; details: 18 h; Proteus vulgaris 6059, Table 31; read-out: Minimum Inhibitory Concentration: MIC
[18] = test system: Salmonella thypimurium 14028; assay: as above; type: cell-based; details: 18 h; Salmonella thypimurium 14028, Table 31; read-out: Minimum Inhibitory Concentration: MIC
[19] = phosphate buffered solution
[20] = Moisture content according to hydration number; type: physicochemical; details: actual moisture content, methanesulfonate hydrates
Experimental: The moisture content of the hydrate varies with the hydration number (n) of the hydrated molecule. Since the molecular weight of 7-(4-amino-methyl-3-methyloxylminopyrrolidin-1-yl)-1-cyclopropyl-6-fluoro- 4-oxo-1,4-dihydro-1,8-naphthyridine-3-carboxylic acid methanesulfonate is 485.5, the moisture content of the hydrate for n equal to 1, 1.5, 2, 2.5, 3, 3.5 or 4 is calculated to be 3.6%, […], 6.9%, 8.5%, 10.0%, 11.5% or 12.9%, respectively. However, the actual moisture content may differ from the calculated moisture content depending on differences in recrystallization conditions, drying conditions, etc.

test strains = assay: In vitro antibacterial activity, overall finding, Biological Example 4; type: cell-based; details: Tables 31 and 32
Experimental: as §1

## CO/N=C1/CN(c2nc3c(cc2F)c(=O)c(C(=O)O)cn3C2CC2)CC1CN (stereo not drawn) [E-isomer]
[1]
  MIC: 0.063 µg/mL (≈ 0.162 µM)
[2]
  MIC: 0.063 µg/mL (≈ 0.162 µM)
Staphylococcus aureus 77
  MIC: 0.063 µg/mL (≈ 0.162 µM)
[3]
  MIC: 16 µg/mL (≈ 41.1 µM)
[4]
  MIC: 0.031 µg/mL (≈ 0.0796 µM)
[5]
  MIC: 32 µg/mL (≈ 82.2 µM)
[6]
  MIC: 0.25 µg/mL (≈ 0.642 µM)
Bacillus subtilis 6633
  MIC: 0.031 µg/mL (≈ 0.0796 µM)
Micrococcus luteus 9341
  MIC: 0.5 µg/mL (≈ 1.28 µM)
Escherichia coli 10536
  MIC: 0.031 µg/mL (≈ 0.0796 µM)
Escherichia coli 3190Y
  MIC: 0.016 µg/mL (≈ 0.0411 µM)
Escherichia coli 851E
  MIC: 0.063 µg/mL (≈ 0.162 µM)
[7]
  MIC: 0.5 µg/mL (≈ 1.28 µM)
[8]
  MIC: 0.5 µg/mL (≈ 1.28 µM)
[9]
  MIC: 0.13 µg/mL (≈ 0.334 µM)
[10]
  MIC: 1 µg/mL (≈ 2.57 µM)
[11]
  MIC: 2 µg/mL (≈ 5.14 µM)
[12]
  MIC: 32 µg/mL (≈ 82.2 µM)
Seratis marsecence 1826E
  MIC: 0.5 µg/mL (≈ 1.28 µM)
[13]
  MIC: 0.25 µg/mL (≈ 0.642 µM)
[14]
  MIC: 0.13 µg/mL (≈ 0.334 µM)
[15]
  MIC: 0.13 µg/mL (≈ 0.334 µM)
Enterobacter cloacae P99
  MIC: 0.031 µg/mL (≈ 0.0796 µM)
[16]
  MIC: 0.25 µg/mL (≈ 0.642 µM)
[17]
  MIC: 0.13 µg/mL (≈ 0.334 µM)
Proteus vulgaris 6059
  MIC: 1 µg/mL (≈ 2.57 µM)
[18]
  MIC: 0.13 µg/mL (≈ 0.334 µM)

## CON=C1CN(c2nc3c(cc2F)c(=O)c(C(=O)O)cn3C2CC2)CC1CN (stereo not shown) [Sulfurate]
[19]; pH 2
  Water Solubility: 8.9
[19]; pH 7
  Water Solubility: 11.4

## CON=C1CN(c2nc3c(cc2F)c(=O)c(C(=O)O)cn3C2CC2)CC1CN (stereo not shown) [1 hydrate, 7-(4-aminomethyl-3-methyloxylminopyrrolidin-1-yl)-1-cyclopropyl-6-fluoro-4-oxo-1,4-dihydro-1,8-naphthyridine-3-carboxylic acid methanesulfonate]
[20]
  Moisture Content: 2-4%

## CON=C1CN(c2nc3c(cc2F)c(=O)c(C(=O)O)cn3C2CC2)CC1CN (stereo not shown) [free form, 7-(4-aminomethyl-3-methyloxyiminopyrrolidin-1-yl)-1-cyclopropyl-6-fluoro-4-oxo-1,4-dihydro-1,8-naphthyridine-3-carboxylic acid]
Test strains
  antibacterial activity: excellent antibacterial activity
[19]; pH 2
  Water Solubility: 14.6
[19]; pH 7
  Water Solubility: 0.007

## CO/N=C1\CN(c2nc3c(cc2F)c(=O)c(C(=O)O)cn3C2CC2)CC1CN (stereo not drawn) [Z-isomer]
[1]
  MIC: ≤ 0.008 µg/mL
[2]
  MIC: ≤ 0.008 µg/mL
Staphylococcus aureus 77
  MIC: 0.031 µg/mL (≈ 0.0796 µM)
[3]
  MIC: 4 µg/mL (≈ 10.3 µM)
[4]
  MIC: ≤ 0.008 µg/mL
[5]
  MIC: 4 µg/mL (≈ 10.3 µM)
[6]
  MIC: 0.063 µg/mL (≈ 0.162 µM)
Bacillus subtilis 6633
  MIC: ≤ 0.008 µg/mL
Micrococcus luteus 9341
  MIC: 0.13 µg/mL (≈ 0.334 µM)
Escherichia coli 10536
  MIC: ≤ 0.008 µg/mL
Escherichia coli 3190Y
  MIC: ≤ 0.008 µg/mL
Escherichia coli 851E
  MIC: 0.016 µg/mL (≈ 0.0411 µM)
[7]
  MIC: 0.13 µg/mL (≈ 0.334 µM)
[8]
  MIC: 0.13 µg/mL (≈ 0.334 µM)
[9]
  MIC: 0.031 µg/mL (≈ 0.0796 µM)
[10]
  MIC: 0.5 µg/mL (≈ 1.28 µM)
[11]
  MIC: 0.5 µg/mL (≈ 1.28 µM)
[12]
  MIC: 8 µg/mL (≈ 20.5 µM)
Seratis marsecence 1826E
  MIC: 0.25 µg/mL (≈ 0.642 µM)
[13]
  MIC: 0.063 µg/mL (≈ 0.162 µM)
[14]
  MIC: 0.031 µg/mL (≈ 0.0796 µM)
[15]
  MIC: 0.031 µg/mL (≈ 0.0796 µM)
Enterobacter cloacae P99
  MIC: ≤ 0.008 µg/mL
[16]
  MIC: 0.063 µg/mL (≈ 0.162 µM)
[17]
  MIC: 0.031 µg/mL (≈ 0.0796 µM)
Proteus vulgaris 6059
  MIC: 0.25 µg/mL (≈ 0.642 µM)
[18]
  MIC: 0.031 µg/mL (≈ 0.0796 µM)
Test strains
  antibacterial activity: superior antibacterial activity to the E-isomer
